Source: the supplement of paper PMC10307832

How the values were obtained:
Experiment in all cases: relative viability (nuclei count vs DMSO), 5 days (fraction); higher = more cells survive
BEN = tested on: BEN
In short: (§1)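 Lung cancer cell lines in 1536-well plates were dosed by pin tool the day after seeding, either with one drug alone or with a fixed anchor-drug dose plus five library-drug doses (not always all listed) in √10 steps. After 5 days, cells were fixed and their nuclei stained in one step (final 0.05% Triton X-100, 1% formaldehyde, 1 ug/ml Hoechst), then counted on 4× images. Relative viability is the nuclei count in treated wells divided by that in vehicle wells. Values are medians of duplicate plates.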

CAL-12T = tested on: CAL-12T
In short: as §1

COR-L23 = tested on: COR-L23
In short: as §1

HCC-366 = tested on: HCC-366
In short: as §1

LOU-NH91 = tested on: LOU-NH91
In short: as §1

LU99A = tested on: LU99A
In short: as §1

NCI-H1355 = tested on: NCI-H1355
In short: as §1

NCI-H1437 = tested on: NCI-H1437
In short: as §1

NCI-H1563 = tested on: NCI-H1563
In short: as §1

NCI-H1650 = tested on: NCI-H1650
In short: as §1

NCI-H1651 = tested on: NCI-H1651
In short: as §1

NCI-H1734 = tested on: NCI-H1734
In short: as §1

NCI-H1793 = tested on: NCI-H1793
In short: as §1

NCI-H1975 = tested on: NCI-H1975
In short: as §1

NCI-H2023 = tested on: NCI-H2023
In short: as §1

NCI-H2085 = tested on: NCI-H2085
In short: as §1

NCI-H2342 = tested on: NCI-H2342
In short: as §1

NCI-H358 = tested on: NCI-H358
In short: as §1

NCI-H441 = tested on: NCI-H441
In short: as §1

NCI-H460 = tested on: NCI-H460
In short: as §1

NCI-H838 = tested on: NCI-H838
In short: as §1

SK-LU-1 = tested on: SK-LU-1
In short: as §1

## Nc1ccn([C@@H]2O[C@H](CO)[C@@H](O)[C@@H]2O)c(=O)n1 [Cytarabine] + Cc1nc(Nc2ncc(C(=O)Nc3c(C)cccc3Cl)s2)cc(N2CCN(CCO)CC2)n1 [Dasatinib] (partner 0.075 µM)
BEN; first compound 0.005 µM
  relative viability: 0.332
BEN; first compound 0.01581 µM
  relative viability: 0.312
BEN; first compound 0.05 µM
  relative viability: 0.204
BEN; first compound 0.1581 µM
  relative viability: 0.175
BEN; first compound 0.5 µM
  relative viability: 0.213
CAL-12T; first compound 0.005 µM
  relative viability: 0.302
CAL-12T; first compound 0.01581 µM
  relative viability: 0.306
CAL-12T; first compound 0.05 µM
  relative viability: 0.447
CAL-12T; first compound 0.1581 µM
  relative viability: 0.284
CAL-12T; first compound 0.5 µM
  relative viability: 0.109
COR-L23; first compound 0.005 µM
  relative viability: 0.405
COR-L23; first compound 0.01581 µM
  relative viability: 0.312
COR-L23; first compound 0.05 µM
  relative viability: 0.287
COR-L23; first compound 0.1581 µM
  relative viability: 0.17
COR-L23; first compound 0.5 µM
  relative viability: 0.14
HCC-366; first compound 0.005 µM
  relative viability: 0.573
HCC-366; first compound 0.01581 µM
  relative viability: 0.402
HCC-366; first compound 0.05 µM
  relative viability: 0.424
HCC-366; first compound 0.1581 µM
  relative viability: 0.148
HCC-366; first compound 0.5 µM
  relative viability: 0.0563
LOU-NH91; first compound 0.005 µM
  relative viability: 0.542
LOU-NH91; first compound 0.01581 µM
  relative viability: 0.555
LOU-NH91; first compound 0.05 µM
  relative viability: 0.422
LOU-NH91; first compound 0.1581 µM
  relative viability: 0.416
LOU-NH91; first compound 0.5 µM
  relative viability: 0.398
LU99A; first compound 0.005 µM
  relative viability: 0.563
LU99A; first compound 0.01581 µM
  relative viability: 0.647
LU99A; first compound 0.05 µM
  relative viability: 0.58
LU99A; first compound 0.1581 µM
  relative viability: 0.578
LU99A; first compound 0.5 µM
  relative viability: 0.364
NCI-H1355; first compound 0.005 µM
  relative viability: 0.641
NCI-H1355; first compound 0.01581 µM
  relative viability: 0.672
NCI-H1355; first compound 0.05 µM
  relative viability: 0.486
NCI-H1355; first compound 0.1581 µM
  relative viability: 0.352
NCI-H1355; first compound 0.5 µM
  relative viability: 0.369
NCI-H1437; first compound 0.005 µM
  relative viability: 0.395
NCI-H1437; first compound 0.01581 µM
  relative viability: 0.26
NCI-H1437; first compound 0.05 µM
  relative viability: 0.228
NCI-H1437; first compound 0.1581 µM
  relative viability: 0.142
NCI-H1437; first compound 0.5 µM
  relative viability: 0.165
NCI-H1563; first compound 0.005 µM
  relative viability: 0.506
NCI-H1563; first compound 0.01581 µM
  relative viability: 0.466
NCI-H1563; first compound 0.05 µM
  relative viability: 0.46
NCI-H1563; first compound 0.1581 µM
  relative viability: 0.383
NCI-H1563; first compound 0.5 µM
  relative viability: 0.393
NCI-H1650; first compound 0.005 µM
  relative viability: 0.257
NCI-H1650; first compound 0.01581 µM
  relative viability: 0.234
NCI-H1650; first compound 0.05 µM
  relative viability: 0.177
NCI-H1650; first compound 0.1581 µM
  relative viability: 0.136
NCI-H1650; first compound 0.5 µM
  relative viability: 0.122
NCI-H1651; first compound 0.005 µM
  relative viability: 0.406
NCI-H1651; first compound 0.01581 µM
  relative viability: 0.457
NCI-H1651; first compound 0.05 µM
  relative viability: 0.397
NCI-H1651; first compound 0.1581 µM
  relative viability: 0.179
NCI-H1651; first compound 0.5 µM
  relative viability: 0.205
NCI-H1734; first compound 0.005 µM
  relative viability: 0.419
NCI-H1734; first compound 0.01581 µM
  relative viability: 0.221
NCI-H1734; first compound 0.05 µM
  relative viability: 0.218
NCI-H1734; first compound 0.1581 µM
  relative viability: 0.125
NCI-H1734; first compound 0.5 µM
  relative viability: 0.113
NCI-H1793; first compound 0.005 µM
  relative viability: 0.364
NCI-H1793; first compound 0.01581 µM
  relative viability: 0.37
NCI-H1793; first compound 0.05 µM
  relative viability: 0.387
NCI-H1793; first compound 0.1581 µM
  relative viability: 0.257
NCI-H1793; first compound 0.5 µM
  relative viability: 0.191
NCI-H1975; first compound 0.005 µM
  relative viability: 0.329
NCI-H1975; first compound 0.01581 µM
  relative viability: 0.47
NCI-H1975; first compound 0.05 µM
  relative viability: 0.338
NCI-H1975; first compound 0.1581 µM
  relative viability: 0.297
NCI-H1975; first compound 0.5 µM
  relative viability: 0.191
NCI-H2023; first compound 0.005 µM
  relative viability: 0.315
NCI-H2023; first compound 0.01581 µM
  relative viability: 0.219
NCI-H2023; first compound 0.05 µM
  relative viability: 0.145
NCI-H2023; first compound 0.1581 µM
  relative viability: 0.107
NCI-H2023; first compound 0.5 µM
  relative viability: 0.0893
NCI-H2085; first compound 0.005 µM
  relative viability: 0.202
NCI-H2085; first compound 0.01581 µM
  relative viability: 0.263
NCI-H2085; first compound 0.05 µM
  relative viability: 0.2
NCI-H2085; first compound 0.1581 µM
  relative viability: 0.188
NCI-H2085; first compound 0.5 µM
  relative viability: 0.2
NCI-H2342; first compound 0.005 µM
  relative viability: 0.309
NCI-H2342; first compound 0.01581 µM
  relative viability: 0.295
NCI-H2342; first compound 0.05 µM
  relative viability: 0.262
NCI-H2342; first compound 0.1581 µM
  relative viability: 0.257
NCI-H2342; first compound 0.5 µM
  relative viability: 0.277
NCI-H358; first compound 0.005 µM
  relative viability: 0.206
NCI-H358; first compound 0.01581 µM
  relative viability: 0.167
NCI-H358; first compound 0.05 µM
  relative viability: 0.131
NCI-H358; first compound 0.1581 µM
  relative viability: 0.0707
NCI-H358; first compound 0.5 µM
  relative viability: 0.0702
NCI-H441; first compound 0.005 µM
  relative viability: 0.545
NCI-H441; first compound 0.01581 µM
  relative viability: 0.533
NCI-H441; first compound 0.05 µM
  relative viability: 0.485
NCI-H441; first compound 0.1581 µM
  relative viability: 0.324
NCI-H441; first compound 0.5 µM
  relative viability: 0.293
NCI-H460; first compound 0.005 µM
  relative viability: 0.394
NCI-H460; first compound 0.01581 µM
  relative viability: 0.259
NCI-H460; first compound 0.05 µM
  relative viability: 0.105
NCI-H460; first compound 0.1581 µM
  relative viability: 0.0311
NCI-H460; first compound 0.5 µM
  relative viability: 0.0213
NCI-H838; first compound 0.005 µM
  relative viability: 0.281
NCI-H838; first compound 0.01581 µM
  relative viability: 0.274
NCI-H838; first compound 0.05 µM
  relative viability: 0.229
NCI-H838; first compound 0.1581 µM
  relative viability: 0.214
NCI-H838; first compound 0.5 µM
  relative viability: 0.164
SK-LU-1; first compound 0.005 µM
  relative viability: 0.179
SK-LU-1; first compound 0.01581 µM
  relative viability: 0.157
SK-LU-1; first compound 0.05 µM
  relative viability: 0.17
SK-LU-1; first compound 0.5 µM
  relative viability: 0.147
